According to patent US20180271097A1, “HETEROCYCLIC TRIFLUOROALKENYL COMPOUNDS HAVING A NEMATOCIDAL ACTIVITY, THEIR AGRONOMIC COMPOSITIONS AND USE THEREOF” (ISAGRO S.P.A., priority 2015, published 2018):

What was measured:
[1] = tested on: Meloidogyne spp.; experiment: Nematocidal activity against Meloidogyne spp., application 7 days before transplantation (tomato in pots); type: in vivo; conditions: tomatoes, 4,000 g/hectare, treatment 7 days before transplantation; for Root development: 60 days after transplantation, 100% = development of comparative healthy root; for Height of plant (cm) / Gall index (scale 0-10): assessment 60 days after transplantation; for Gall index (scale 0-10): Bridge and Page scale, 0 = 0% affected root, 10 = 100% infested root
Protocol: Determination of the Nematocidal Activity Against Meloidogyne Spp. (Application 7 Days Before Transplantation)
(§1) The tests, aimed at testing the nematocidal activity of the product under consideration, were carried out using inocula taken from a breeding of Meloidogyne spp. maintained on tomato and tobacco plants in pots and grown in a greenhouse.
(§2) In order to perform the experiments, portions of roots having a large number of galls, and ground, in which larvae are present, starting from the second stage of age, were collected from the infested pots.
(§3) New pots having a diameter of 15 cm were half-filled with sterile earth. The portions of infested roots, previously cleaned, were positioned on the same in order to correctly evaluate the degree of infestation and ensure that each pot contained the same nematic charge. 200-300 g of infested earth were then added and subsequently covered with a thin layer of sterile earth.
(§4) The treatment was effected by pouring, onto the surface of the ground, 100 ml of solution in which the product to be tested was dissolved.
(§5) Tomato seedlings at a stage of two-three true leaves were transplanted into the pots thus prepared. Different tomato cultivars were adopted, having a different sensitivity to the parasite and with different growth rates. In particular, an ornamental variety (cv Microtom) was used for evaluating the final production, whose seedlings have reduced dimensions and are capable of reaching maturity of the fruit in pots and under greenhouse conditions, in about two months.
The evaluation of the product under consideration was effected by treating the pots 7 days before transplantation (according to what is indicated in the label of the commercial reference product NIMITZ® (Fluensulfone)).
The product was evaluated considering the possible phytotoxic effects that can jeopardize the development of the plant (a zero-ten scale was used wherein: zero=no symptoms, 10=plant destroyed) and the effectiveness with respect to nematodes.
(§6) The capacity of limiting the parasite was detected, at a distance of 30 and 60 days after transplanting, considering the development of the root system (wherein 100% is the development reached by the comparative healthy root) and the presence of galls on the roots. The presence of galls in the roots was estimated using the infestation scale proposed by Bridge and Page, in which the value zero corresponds to 0% of affected root and the value of 10 corresponds to 100% of infested root.
Table 2 indicates the results relating to the effectiveness of Compounds 1, 2 and 22 and Compounds CR1, CR2, CR3 on tomatoes at a dosage of 4,000 g/hectare, effecting the assessment 60 days after the transplantation.

[2] = tested on: Meloidogyne spp.; experiment: Nematocidal activity against Meloidogyne spp., application with already cultivating crop (tomato in pots); type: in vivo; conditions: tomatoes, 4,000 g/hectare, repeated treatment after transplantation (already cultivating crop); for Root development: 60 days after transplantation, 100% = healthy root; for Gall index (scale 0-10) / Weight of plant: survey 60 days after transplantation
Protocol: as §1, §2, §3, §4, §5, §6
Determination of the Nematocidal Activity Against Meloidogyne Spp. (Application with Already Cultivating Crop)
The same experimental procedure as Example 4 was adopted for evaluating the nematocidal activity of the products under examination, except for the fact that this evaluation was effected by applying the product during the development of the seedlings (according to what is indicated in the label of the commercial reference product VYDATE® (Oxamil)).
Table 5 indicates the results relating to the effectiveness of compounds 1, 2, 6 and the compound CR1 on tomatoes at a dose of 4,000 g/hectare effecting the survey 60 days after transplantation.

[3] = tested on: tomatoes; experiment: Phytotoxicity on tomatoes, application with already cultivating crop; type: in vivo, tomato; conditions: zero = no symptoms, 10 = plant destroyed
Protocol: The product was evaluated considering the possible phytotoxic effects that can jeopardize the development of the plant (a zero-ten scale was used wherein: zero=no symptoms, 10=plant destroyed) and the effectiveness with respect to nematodes. Table 6 indicates the results relating to phytotoxicity on tomatoes applying compounds 1, 2, 6, 9, 71, 75, 76 and CR1 with already cultivating crop: […]

[4] = tested on: Meloidogyne spp.; experiment: Nematocidal activity against Meloidogyne spp., application at the moment of transplantation (tomato in pots); type: in vivo; conditions: tomatoes, 4,000 g/hectare, 1 treatment at the moment of transplantation; for Root development: 60 days after transplantation, 100% = healthy root; for Gall index (scale 0-10) / Weight of plant: survey 60 days after transplantation
Protocol: as §1, §2, §3, §4, §5, §6
Determination of the Nematocidal Activity Against Meloidogyne Spp. (Application at the Moment of Transplantation)
The same experimental procedure as Example 4 was adopted for evaluating the nematocidal activity of the products under examination, except for the fact that this evaluation was effected by applying the product at the moment of transplantation.
Tables 3 and 4 indicate the results relating to the effectiveness of compounds 9, 10, 71, 75, 76 and the reference compound CR1 on tomatoes at a dose of 4,000 g/hectare effecting the survey 60 days after transplantation.

Structure (SMILES)	Root development [1] [%]	Height of plant (cm) [1] [cm]	Gall index (scale 0-10) [1] [scale 0-10]	Root development [2] [%]	Gall index (scale 0-10) [2] [scale 0-10]	Weight of plant [2] [g]	Phytotoxicity (scale 0-10) [3] [scale 0-10]	Root development ([4]; Table 3 test) [%]	Gall index (scale 0-10) ([4]; Table 3 test)	Weight of plant ([4]; Table 3 test) [g]	Root development ([4]; Table 4 test) [%]	Gall index (scale 0-10) ([4]; Table 4 test)	Weight of plant ([4]; Table 4 test) [g]
Cc1nnc(S(=O)(=O)CCC(F)=C(F)F)s1 [Nr 2, 2-(3,4,4-trifluoro-3-butenylsulfonyl)-5-methyl-1,3,4-thiadiazole]	95	76	1.0	100	0.0	33	0	–	–	–	–	–	–
O=S(=O)(CCC(F)=C(F)F)c1ncc(Cl)s1 [CR1, 5-chloro-2-(3,4,4-trifluoro-3-butenylsulfonyl)-thiazole, reference compound]	70	71	2.0	32	1.5	25	3	60	1.5	62	80	1.0	50
CC(C)c1nnc(S(=O)(=O)CCC(F)=C(F)F)s1 [Nr 6]	–	–	–	95	2.0	40	0	–	–	–	–	–	–
O=S(=O)(CCC(F)=C(F)F)c1nnc(Cl)s1 [Nr 22, 2-(3,4,4-trifluoro-3-butenylsulfonyl)-5-chloro-1,3,4-thiadiazole]	90	73	1.5	–	–	–	–	–	–	–	–	–	–
Cc1nnc(SCCC(F)=C(F)F)s1 [CR2, 2-(3,4,4-trifluoro-3-butenylthio)-5-methyl-1,3,4-thiadiazole, reference compound]	70	60	2.0	–	–	–	–	–	–	–	–	–	–
CC(C)Cc1nnc([S+]([O-])CCC(F)=C(F)F)s1 (stereo not shown) [Nr 9]	–	–	–	–	–	–	0	70	2.0	116	–	–	–
CC(C)Cc1nnc(S(=O)(=O)CCC(F)=C(F)F)s1 [Nr 10]	–	–	–	–	–	–	–	75	2.0	88	–	–	–
Cc1nnc(S(=O)(=O)CCC=C(F)F)s1 [CR3, 2-(4,4-difluoro-3-butenylsulfonyl)-5-methyl-1,3,4-thiadiazole, reference compound]	75	70	1.5	–	–	–	–	–	–	–	–	–	–
Cc1nnc([S+]([O-])CCC(F)=C(F)F)s1 (stereo not shown) [Nr 1, 2-(3,4,4-trifluoro-3-butenylsulfinyl)-5-methyl-1,3,4-thiadiazole]	95	75	1.0	100	1.0	36	0	–	–	–	–	–	–
CC1(C)CC(S(=O)(=O)CCC(F)=C(F)F)=NO1 [Nr 76]	–	–	–	–	–	–	0	–	–	–	100	1.5	51
CC1(C)CC([S+]([O-])CCC(F)=C(F)F)=NO1 (stereo not shown) [Nr 75]	–	–	–	–	–	–	0	–	–	–	100	1.0	50
